From PubChem BioAssay (NCI)
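1) Cells in 96-well plates. 2) Compound, 48 h, 5 concentrations. 3) Linear interpolation between surrounding doses. 4) Unreached endpoint = highest concentration. GI50 marks 50% less growth. TGI marks complete inhibition of growth.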

Experiments:
Assay in all cases: inhibition of tumour cell growth, NCI panel, 48 h
786-0 renal = test system: 786-0 renal
A498 renal = test system: A498 renal
A549 NSCLC = test system: A549 NSCLC
ACHN renal = test system: ACHN renal
BT-549 breast = test system: BT-549 breast
CAKI-1 renal = test system: CAKI-1 renal
CCRF-CEM leukemia = test system: CCRF-CEM leukemia
COLO 205 colon = test system: COLO 205 colon
DU-145 prostate = test system: DU-145 prostate
EKVX NSCLC = test system: EKVX NSCLC
HCC-2998 colon = test system: HCC-2998 colon
HCT-116 colon = test system: HCT-116 colon
HCT-15 colon = test system: HCT-15 colon
HL-60(TB) leukemia = test system: HL-60(TB) leukemia
HOP-62 NSCLC = test system: HOP-62 NSCLC
HOP-92 NSCLC = test system: HOP-92 NSCLC
HS 578T breast = test system: HS 578T breast
HT29 colon = test system: HT29 colon
IGROV1 ovarian = test system: IGROV1 ovarian
K-562 leukemia = test system: K-562 leukemia
KM12 colon = test system: KM12 colon
LOX IMVI melanoma = test system: LOX IMVI melanoma
M14 melanoma = test system: M14 melanoma
MCF7 breast = test system: MCF7 breast
MDA-MB-231 breast = test system: MDA-MB-231 breast
MDA-MB-435 = test system: MDA-MB-435
MOLT-4 leukemia = test system: MOLT-4 leukemia
NCI-H226 lung = test system: NCI-H226 lung
NCI-H23 lung = test system: NCI-H23 lung
NCI-H460 lung = test system: NCI-H460 lung
NCI-H522 lung = test system: NCI-H522 lung
NCI/ADR-RES ovarian = test system: NCI/ADR-RES ovarian
OVCAR-3 ovarian = test system: OVCAR-3 ovarian
OVCAR-4 ovarian = test system: OVCAR-4 ovarian
OVCAR-5 ovarian = test system: OVCAR-5 ovarian
OVCAR-8 ovarian = test system: OVCAR-8 ovarian
PC-3 prostate = test system: PC-3 prostate
RPMI-8226 leukemia = test system: RPMI-8226 leukemia
SF-268 CNS = test system: SF-268 CNS
SF-295 CNS = test system: SF-295 CNS
SF-539 CNS = test system: SF-539 CNS
SK-MEL-2 melanoma = test system: SK-MEL-2 melanoma
SK-MEL-28 melanoma = test system: SK-MEL-28 melanoma
SK-MEL-5 melanoma = test system: SK-MEL-5 melanoma
SN12C renal = test system: SN12C renal
SNB-19 CNS = test system: SNB-19 CNS
SNB-75 CNS = test system: SNB-75 CNS
SR leukemia = test system: SR leukemia
SW-620 colon = test system: SW-620 colon
T-47D breast = test system: T-47D breast
TK-10 renal = test system: TK-10 renal
U251 CNS = test system: U251 CNS
UACC-257 melanoma = test system: UACC-257 melanoma
UACC-62 melanoma = test system: UACC-62 melanoma
UO-31 renal = test system: UO-31 renal

CCOC(=O)c1c(C)n2c(=O)cc(C)c3c(O)c(O)cc1c32
GI50 (786-0 renal): 8.83 µM | TGI (786-0 renal): > 100 µM | GI50 (A498 renal): 27.4 µM | TGI (A498 renal): > 100 µM | GI50 (A549 NSCLC): 5.56 µM | TGI (A549 NSCLC): 49.1 µM | GI50 (ACHN renal): 1.82 µM | TGI (ACHN renal): 31.2 µM | GI50 (BT-549 breast): 15.9 µM | TGI (BT-549 breast): 79.7 µM | GI50 (CAKI-1 renal): 2.2 µM | TGI (CAKI-1 renal): > 100 µM | GI50 (CCRF-CEM leukemia): 0.746 µM | TGI (CCRF-CEM leukemia): 6.05 µM | GI50 (COLO 205 colon): 13.1 µM | TGI (COLO 205 colon): > 100 µM | GI50 (DU-145 prostate): 29.1 µM | TGI (DU-145 prostate): > 100 µM | GI50 (EKVX NSCLC): 20.8 µM | TGI (EKVX NSCLC): > 100 µM | GI50 (HCC-2998 colon): 40.8 µM | TGI (HCC-2998 colon): > 100 µM | GI50 (HCT-116 colon): 18.5 µM | TGI (HCT-116 colon): 35.5 µM | GI50 (HCT-15 colon): 2.48 µM | TGI (HCT-15 colon): 51.1 µM | GI50 (HL-60(TB) leukemia): 2.92 µM | TGI (HL-60(TB) leukemia): 17.2 µM | GI50 (HOP-62 NSCLC): 38.4 µM | TGI (HOP-62 NSCLC): > 100 µM | GI50 (HOP-92 NSCLC): 2.49 µM | TGI (HOP-92 NSCLC): 31.6 µM | GI50 (HS 578T breast): 25.6 µM | TGI (HS 578T breast): > 100 µM | GI50 (HT29 colon): 24.5 µM | TGI (HT29 colon): > 100 µM | GI50 (IGROV1 ovarian): 4.83 µM | TGI (IGROV1 ovarian): 87 µM | GI50 (K-562 leukemia): 3.46 µM | TGI (K-562 leukemia): 33.3 µM | GI50 (KM12 colon): 4.13 µM | TGI (KM12 colon): 42.2 µM | GI50 (LOX IMVI melanoma): 3.98 µM | TGI (LOX IMVI melanoma): 30.5 µM | GI50 (M14 melanoma): 53.3 µM | TGI (M14 melanoma): > 100 µM | GI50 (MCF7 breast): 6.61 µM | TGI (MCF7 breast): > 100 µM | GI50 (MDA-MB-231 breast): 4.49 µM | TGI (MDA-MB-231 breast): 30.2 µM | GI50 (MDA-MB-435): 14.5 µM | TGI (MDA-MB-435): > 100 µM | GI50 (MOLT-4 leukemia): 1.34 µM | TGI (MOLT-4 leukemia): 15.2 µM | GI50 (NCI-H226 lung): 9.2 µM | TGI (NCI-H226 lung): 93.5 µM | GI50 (NCI-H23 lung): 10.9 µM | TGI (NCI-H23 lung): 51.6 µM | GI50 (NCI-H460 lung): 12.9 µM | TGI (NCI-H460 lung): > 100 µM | GI50 (NCI-H522 lung): 3.4 µM | TGI (NCI-H522 lung): 16.7 µM | GI50 (NCI/ADR-RES ovarian): 28.3 µM | TGI (NCI/ADR-RES ovarian): 89.4 µM | GI50 (OVCAR-3 ovarian): 1.42 µM | TGI (OVCAR-3 ovarian): 9.94 µM | GI50 (OVCAR-4 ovarian): 4.53 µM | TGI (OVCAR-4 ovarian): > 100 µM | GI50 (OVCAR-5 ovarian): 43.8 µM | TGI (OVCAR-5 ovarian): > 100 µM | GI50 (OVCAR-8 ovarian): 2.7 µM | TGI (OVCAR-8 ovarian): 9.32 µM | GI50 (PC-3 prostate): 4.23 µM | TGI (PC-3 prostate): > 100 µM | GI50 (RPMI-8226 leukemia): 1.92 µM | TGI (RPMI-8226 leukemia): 15.1 µM | GI50 (SF-268 CNS): 5.88 µM | TGI (SF-268 CNS): > 100 µM | GI50 (SF-295 CNS): 10.3 µM | TGI (SF-295 CNS): > 100 µM | GI50 (SF-539 CNS): 16.6 µM | TGI (SF-539 CNS): 55.3 µM | GI50 (SK-MEL-2 melanoma): 20.9 µM | TGI (SK-MEL-2 melanoma): > 100 µM | GI50 (SK-MEL-28 melanoma): 27.2 µM | TGI (SK-MEL-28 melanoma): > 100 µM | GI50 (SK-MEL-5 melanoma): 4.67 µM | TGI (SK-MEL-5 melanoma): 24.1 µM | GI50 (SN12C renal): 3.85 µM | TGI (SN12C renal): 24.6 µM | GI50 (SNB-19 CNS): 8.72 µM | TGI (SNB-19 CNS): > 100 µM | GI50 (SNB-75 CNS): 35.6 µM | TGI (SNB-75 CNS): > 100 µM | GI50 (SR leukemia): 0.721 µM | TGI (SR leukemia): 17 µM | GI50 (SW-620 colon): 4.3 µM | TGI (SW-620 colon): > 100 µM | GI50 (T-47D breast): 9.26 µM | TGI (T-47D breast): > 100 µM | GI50 (TK-10 renal): 5.47 µM | TGI (TK-10 renal): > 100 µM | GI50 (U251 CNS): 4.68 µM | TGI (U251 CNS): 30.5 µM | GI50 (UACC-257 melanoma): 2.7 µM | TGI (UACC-257 melanoma): 7.65 µM | GI50 (UACC-62 melanoma): 8.9 µM | TGI (UACC-62 melanoma): 29.3 µM | GI50 (UO-31 renal): 5.7 µM | TGI (UO-31 renal): > 100 µM
